What was measured:
Test in all cases: KAM-matrix competition in K562 lysate;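 as to 0.001 uM KAM: median log10 fold change of treatment over DMSO control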;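 as to 0.01 uM KAM: median log10 fold change of treatment over DMSO control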;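 as to 0.1 uM KAM: median log10 fold change of treatment over DMSO control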;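 as to 1 uM KAM: median log10 fold change of treatment over DMSO control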;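 as to 10 uM KAM: median log10 fold change of treatment over DMSO control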
Assay type in all cases: binding
CDK12 = target: T1, CDK12 (Homo sapiens, UniProt Q9NYV4)
T1 construct: endogenous in cells; host or cells: K562
Procedure: (§1) Supplement 12953_2017_125_MOESM1_ESM.zip/MS_Supp Info.xlsx, sheet "KAM" | column: 10 uM KAM; 1 uM KAM; 0.1 uM KAM; 0.01 uM KAM; 0.001 uM KAM; RB50

ATR = target: T2, ATR (Homo sapiens, UniProt Q13535);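 as to 0.001 uM KAM: median log10 fold change of treatment over DMSO control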;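 as to 0.01 uM KAM: median log10 fold change of treatment over DMSO control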;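 as to 0.1 uM KAM: median log10 fold change of treatment over DMSO control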;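 as to 1 uM KAM: median log10 fold change of treatment over DMSO control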;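 as to 10 uM KAM: median log10 fold change of treatment over DMSO control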
T2 construct: endogenous in cells; host or cells: K562
Procedure: as §1

ROCK1 = target: T3, ROCK1 (Homo sapiens, UniProt Q13464);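 as to 0.001 uM KAM: median log10 fold change of treatment over DMSO control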;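 as to 0.01 uM KAM: median log10 fold change of treatment over DMSO control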;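 as to 0.1 uM KAM: median log10 fold change of treatment over DMSO control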;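 as to 1 uM KAM: median log10 fold change of treatment over DMSO control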;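 as to 10 uM KAM: median log10 fold change of treatment over DMSO control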
T3 construct: endogenous in cells; host or cells: K562
Procedure: as §1

MASTL = target: T4, MASTL (Homo sapiens, UniProt Q96GX5)
T4 construct: endogenous in cells; host or cells: K562 cell lysate
T4 sequence (Q96GX5 1-879): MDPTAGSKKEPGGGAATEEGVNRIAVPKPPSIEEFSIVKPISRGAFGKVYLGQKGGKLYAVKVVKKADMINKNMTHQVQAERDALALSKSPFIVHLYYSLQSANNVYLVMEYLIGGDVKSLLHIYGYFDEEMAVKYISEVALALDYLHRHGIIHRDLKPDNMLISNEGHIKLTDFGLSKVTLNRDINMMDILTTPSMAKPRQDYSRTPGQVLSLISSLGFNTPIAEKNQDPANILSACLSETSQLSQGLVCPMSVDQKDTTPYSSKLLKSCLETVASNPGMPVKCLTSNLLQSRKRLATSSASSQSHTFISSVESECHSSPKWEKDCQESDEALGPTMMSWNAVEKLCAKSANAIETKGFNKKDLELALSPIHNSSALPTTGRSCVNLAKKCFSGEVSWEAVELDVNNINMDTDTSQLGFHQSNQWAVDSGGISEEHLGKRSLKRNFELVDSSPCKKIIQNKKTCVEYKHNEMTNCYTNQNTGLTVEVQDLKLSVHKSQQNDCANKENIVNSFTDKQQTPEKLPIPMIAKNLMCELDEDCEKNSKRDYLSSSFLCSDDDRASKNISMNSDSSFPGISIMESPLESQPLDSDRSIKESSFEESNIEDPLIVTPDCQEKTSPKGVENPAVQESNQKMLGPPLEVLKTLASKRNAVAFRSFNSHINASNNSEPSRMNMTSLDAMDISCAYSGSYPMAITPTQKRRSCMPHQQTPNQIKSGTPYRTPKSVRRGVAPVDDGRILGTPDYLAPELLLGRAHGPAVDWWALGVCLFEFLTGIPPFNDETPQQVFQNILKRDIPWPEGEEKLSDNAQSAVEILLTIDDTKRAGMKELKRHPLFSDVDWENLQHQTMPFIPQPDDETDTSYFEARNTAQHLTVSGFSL
Procedure: as §1

CSNK2A2 = target: T5, CSNK2A2 (Homo sapiens, UniProt P19784)
T5 construct: endogenous in cells; host or cells: K562
Procedure: as §1

WNK1 = target: T6, WNK1 (Homo sapiens, UniProt Q9H4A3);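 as to 0.001 uM KAM: median log10 fold change of treatment over DMSO control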;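 as to 0.01 uM KAM: median log10 fold change of treatment over DMSO control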;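 as to 0.1 uM KAM: median log10 fold change of treatment over DMSO control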;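 as to 1 uM KAM: median log10 fold change of treatment over DMSO control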;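 as to 10 uM KAM: median log10 fold change of treatment over DMSO control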
T6 construct: endogenous in cells; host or cells: K562
Procedure: as §1

MAPKAPK5 = target: T7, MAPKAPK5 (Homo sapiens, UniProt Q8IW41)
T7 construct: endogenous in cells; host or cells: K562
T7 sequence (Q8IW41 1-473): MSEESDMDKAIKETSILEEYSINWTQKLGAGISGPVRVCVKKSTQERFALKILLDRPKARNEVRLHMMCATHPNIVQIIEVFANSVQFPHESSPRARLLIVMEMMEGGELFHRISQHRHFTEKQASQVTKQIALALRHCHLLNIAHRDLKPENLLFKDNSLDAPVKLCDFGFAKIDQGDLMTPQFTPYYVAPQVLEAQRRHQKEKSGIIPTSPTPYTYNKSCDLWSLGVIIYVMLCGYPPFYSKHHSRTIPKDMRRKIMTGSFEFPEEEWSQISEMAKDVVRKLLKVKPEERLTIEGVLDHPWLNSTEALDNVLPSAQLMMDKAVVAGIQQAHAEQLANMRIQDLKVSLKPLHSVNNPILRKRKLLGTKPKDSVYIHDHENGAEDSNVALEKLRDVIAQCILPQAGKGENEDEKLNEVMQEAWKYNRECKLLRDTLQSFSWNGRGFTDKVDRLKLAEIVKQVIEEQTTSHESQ
Procedure: as §1

AURKA = target: T8, AURKA (Homo sapiens, UniProt O14965)
T8 construct: endogenous in cells; host or cells: K562
T8 sequence (O14965 1-403): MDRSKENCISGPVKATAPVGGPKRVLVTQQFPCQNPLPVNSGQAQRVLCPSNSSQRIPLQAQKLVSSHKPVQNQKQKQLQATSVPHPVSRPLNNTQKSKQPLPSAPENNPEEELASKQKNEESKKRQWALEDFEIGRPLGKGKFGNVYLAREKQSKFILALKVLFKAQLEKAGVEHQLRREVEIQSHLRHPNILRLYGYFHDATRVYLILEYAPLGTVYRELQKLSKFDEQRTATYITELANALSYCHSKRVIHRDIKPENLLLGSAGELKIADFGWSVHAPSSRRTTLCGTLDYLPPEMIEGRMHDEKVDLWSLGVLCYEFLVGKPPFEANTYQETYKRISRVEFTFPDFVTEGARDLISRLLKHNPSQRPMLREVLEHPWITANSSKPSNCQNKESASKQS
Procedure: as §1

[1] = read-out: RB50 (the source's name)
[2] = KAM 0.001-10 uM, read-out: RB50 (the source's name)

N#CCc1ccc(Nc2nc(NCCCN)cc(Nc3cc(C4CC4)[nH]n3)n2)cc1 [KAM]
median Log10 fold change (CDK12; 0.001 uM KAM): 0.006765 | median Log10 fold change (CDK12; 0.01 uM KAM): 0.002685 | median Log10 fold change (CDK12; 0.1 uM KAM): -0.1288 | median Log10 fold change (CDK12; 1 uM KAM): -0.2742 | median Log10 fold change (CDK12; 10 uM KAM): -0.4096 | IC50 (CDK12; [1]): 1570 nM | IC50 (ATR; [2]): > 10000 nM | 0.001 uM KAM (ATR; relative to 0 uM KAM = 0): -0.04695 | 0.01 uM KAM (ATR; relative to 0 uM KAM = 0): 0.002576 | 0.1 uM KAM (ATR; relative to 0 uM KAM = 0): -0.08926 | 1 uM KAM (ATR; relative to 0 uM KAM = 0): -0.01418 | 10 uM KAM (ATR; relative to 0 uM KAM = 0): 0.03196 | IC50 (ROCK1; [2]): > 10000 nM | 0.001 uM KAM (ROCK1; relative to 0 uM KAM = 0): -0.0607 | 0.01 uM KAM (ROCK1; relative to 0 uM KAM = 0): -0.006672 | 0.1 uM KAM (ROCK1; relative to 0 uM KAM = 0): -0.08063 | 1 uM KAM (ROCK1; relative to 0 uM KAM = 0): -0.07367 | 10 uM KAM (ROCK1; relative to 0 uM KAM = 0): -0.1223 | median Log10 fold change (MASTL; 0.001 uM KAM): 0.009734 | median Log10 fold change (MASTL; 0.01 uM KAM): -0.004391 | median Log10 fold change (MASTL; 0.1 uM KAM): -0.2197 | median Log10 fold change (MASTL; 1 uM KAM): -0.3171 | median Log10 fold change (MASTL; 10 uM KAM): -0.3645 | IC50 (MASTL; [1]): 948 nM | median Log10 fold change (CSNK2A2; 0.001 uM KAM): 0.0115 | median Log10 fold change (CSNK2A2; 0.01 uM KAM): -0.003085 | median Log10 fold change (CSNK2A2; 0.1 uM KAM): -0.2921 | median Log10 fold change (CSNK2A2; 1 uM KAM): -0.5833 | median Log10 fold change (CSNK2A2; 10 uM KAM): -0.635 | IC50 (CSNK2A2; [1]): 150 nM | IC50 (WNK1; [2]): > 10000 nM | 0.001 uM KAM (WNK1; relative to 0 uM KAM = 0): -0.03013 | 0.01 uM KAM (WNK1; relative to 0 uM KAM = 0): -0.03259 | 0.1 uM KAM (WNK1; relative to 0 uM KAM = 0): -0.03066 | 1 uM KAM (WNK1; relative to 0 uM KAM = 0): 0.00603 | 10 uM KAM (WNK1; relative to 0 uM KAM = 0): -0.05865 | median Log10 fold change (MAPKAPK5; 0.001 uM KAM): 0.03286 | median Log10 fold change (MAPKAPK5; 0.01 uM KAM): -0.006541 | median Log10 fold change (MAPKAPK5; 0.1 uM KAM): -0.1605 | median Log10 fold change (MAPKAPK5; 1 uM KAM): -0.3604 | median Log10 fold change (MAPKAPK5; 10 uM KAM): -0.4852 | IC50 (MAPKAPK5; [1]): 729 nM | median Log10 fold change (AURKA; 0.001 uM KAM): 0.0112 | median Log10 fold change (AURKA; 0.01 uM KAM): -0.01229 | median Log10 fold change (AURKA; 0.1 uM KAM): -0.2365 | median Log10 fold change (AURKA; 1 uM KAM): -0.473 | median Log10 fold change (AURKA; 10 uM KAM): -0.552 | IC50 (AURKA; [1]): 257 nM

— article PMC5513037, “Examining the influence of specificity ligands and ATP-competitive ligands on the overall effectiveness of bivalent kinase inhibitors” (Proteome Science, 2017)
